Assays:
Assay type in all cases: cell-based, human
VCAM-1 = VCAM-1 expression in TNFα treated VSMC, western blot; details: 10 and 100 nM; TNFα 10 ng/ml 4 hr; P=0.20 compared to TNFα
Method: Mar-1. VSMCs and ECs were lysed in buffer (20 mM Tris-Hcl, 137 mM NaCl, 10% Glycerol, 1% NP-40) with protease and phosphatase inhibitors (Halt inhibitor capsules, Pierce, Inc) by sonication on ice. The lysates were instantly snap frozen in liquid nitrogen and thawed back later for western blotting. After centrifugation (15,000 g for 20 minutes), the whole cell extract (supernatant) was collected and was heated at 100° C. in Laemlli buffer for 6 minutes. Lysates were run on Mini-Protean TGX gels
(Biorad) and transferred on PVDF membranes which were probed with appropriate primary and secondary antibodies and visualized for quantitation using q-dot nanocrystals (Life Technologies, Inc).
FIGS. 15A-15D. Representative images of Calcein-AM labeled U937 monocytes adhered to human sv-VSMCs pretreated with vehicle (A, B) or 7S-Maresin-1 (C) or 7S-Maresin-1 and pertussis toxin (D) for 30 min, followed by TNFα at 10 ng/ml for 4 hr (B, C, D). (E) Quantitative analysis of U937 adhesion assay in human sv-VSMCs and (F) human sv-ECs (1 ng/ml TNFα used for EC cells). […] Bar graph represents net quantitative densitometry analysis. […] Expression of MCP-1 was measured by qRT-PCR, and normalized to unstimulated cells (n=3, results are mean±SEM, P<0.05 for Mar-1 (10 and 100 nM) vs TNF alone, unpaired t-test).

p65 subunit = test: Nuclear translocation of p65 subunit in sv-VSMCs (immunofluorescence); details: 100 nm, 30 min; TNFα 10 ng/ml 2 hrs
Method: Immunofluorescence for p65 (RelA): 15000 VSMCs or 30000 ECs were seeded on a 8-well chamber slide. Cells received 30 min of Maresin-1 pretreatment, followed by TNF-α for 2 hr. Cells were fixed in 2% paraformaldehyde, followed by permeabilization with ice-cold acetone (10 min) and 1% Triton X-100 (20 min). Cells were incubated overnight in a humidified chamber with anti-p65 antibody (Santa Cruz Biotechnology Inc.) followed by Alexa-fluor 488 tagged secondary antibody (Life Technologies) and were visualized under a fluorescent microscope.
FIGS. 16A-16D. VSMCs were grown in chamber slides and treated with vehicle or 100 nm of 7S or 7R-Maresin-1 with/without 10 ng/ml pertussis toxin for 30 min, followed by TNFα (10 ng/ml) for 2 hrs. Cells were fixed and subsequently stained with anti-p65 (Santa Cruz Biotechnology) and secondary antibodies (Alexa-488). (A-D) Representative images of Ctrl (A), TNFα (B), 7R-Maresin-1+TNFα (C) and 7R-Maresin-1+pertussis toxin (10 ng/ml)+TNFα. (E) Mean fluorescence of nucleus and cytoplasm were quantified from all groups and the net result of the ratio of nucleus over cytoplasmic mean fluorescence is depicted in the bar graph, as a measure of relative p65 nuclear translocation. (N>=3). […]

[1] = test system: Stat1, C/EBP, SMAD, SATB1, EGR; test: Transcription factor multiplex array in TNF-α-stimulated VSMC; details: 10 nM; TNF-α 10 ng/ml 18 hours
Method: Cells are plated onto 96-well plates and treated with 10 ng/ml TNF-α in the presence or absence of 10 nM RvD2 for 18 hours and then nuclear extracts are prepared. Transcription factor profiling is performed using a multiplex array according to the manufacturer's instructions (Signosis Inc., Sunnyvale, Calif.).
FIG. 11: RvD1 and RvD2 modulate activity of multiple transcription factors in TNF-α-stimulated VSMC. VSMCs were treated with TNF-α (10 ng/ml) for 18 hours and nuclear extracts were prepared. Transcription factor profiling was performed using a multiplex array.

| Compound | VCAM-1 expression by Western blot (VCAM-1) | nuclear translocation of p65 subunit in human sv-VSMCs (p65 subunit) | transcription factor activity (Stat1, C/EBP, SMAD, SATB1, EGR) vs TNF-α-stimulated controls [1] |
| --- | --- | --- | --- |
| CC/C=C\C/C=C\C[C@H](O)\C=C/C=C/C=C/[C@@H](O)C/C=C\CCC(=O)O [7S-Maresin-1, 7S,14R-dihydroxydocosa-4Z,8E,10Z,12Z,16Z,19Z-hexaenoic acid] | inhibition of VCAM-1 expression | Inhibit | – |
| CC/C=C\C[C@H](O)[C@H](O)/C=C/C=C/C=C\C=C\[C@@H](O)C/C=C\CCC(=O)O [RvD2, resolvin D2] | – | – | significantly downregulated |

— US10111847B2, “Compounds and methods for modulating vascular injury” (The Regents of the University of California, priority 2012, dated 2018)
